What was measured:
[1] = physchem; settings: octanol/water
[2] = octanol/water

Row | Molecule | logP [1] | logP [2]
1 | O=NN(CCCl)C(=O)NC1CCCCC1 [LOMUSTINE] | 2.83 | –
2 | OC(CBr)C(O)C(O)C(O)CBr (stereo not given) | -0.29 | –
3 | BLEOMYCIN | – | -3.3
4 | O=c1[nH]c(=O)n(C2CCCO2)cc1F (stereo not given) [TEGAFUR] | -0.48 | –
5 | O=NN(CCCl)C(=O)NCCCl [CARMUSTINE] | 1.54 | –
6 | OCC(O)CO [GLYCERIN] | -1.75 | –
7 | COc1cc([C@@H]2c3cc4c(cc3[C@@H](O[C@@H]3O[C@@H]5CO[C@@H](c6cccs6)O[C@H]5[C@H](O)[C@H]3O)[C@H]3COC(=O)[C@H]23)OCO4)cc(OC)c1O [TENIPOSIDE] | – | 2.8
8 | CN1CC(=O)NC1=N [CREATININE] | – | -1.77
9 | CC[C@]1(O)C[C@H]2CN(CCc3c([nH]c4ccccc34)[C@@](C(=O)OC)(c3cc4c(cc3OC)N(C=O)[C@H]3[C@@](O)(C(=O)OC)[C@H](OC(C)=O)[C@]5(CC)C=CCN6CC[C@]43[C@@H]65)C2)C1 [VINCRISTINE] | 2.8 | –
10 | O[C@@H]1CO[C@H]2[C@@H]1OC[C@H]2O | -1.29 | –
11 | CCc1nc(N)nc(N)c1-c1ccc(Cl)c(Cl)c1 [ETOPRINE] | 3.19 | –
12 | O=C1NC2(CCCCC2)C(=O)N1CCN(CCCl)CCCl [SPIROMUSTINE] | 2.47 | –
13 | Cc1ncc([N+](=O)[O-])n1CCO [METRONIDAZOLE] | -0.16 | –
14 | OC[C@@H](O)[C@@H](O)[C@H](O)[C@H](O)CO [MANNITOL] | -3.1 | –
15 | COc1cccc2c1C(=O)c1c(O)c3c(c(O)c1C2=O)C[C@@](O)(C(=O)CO)C[C@@H]3O[C@H]1C[C@H](N)[C@H](O)[C@H](C)O1 [DOXORUBICIN] | -0.1 | –
16 | O=C1OC(C(O)CO)C(O)=C1O (stereo not given) | – | -4.04
17 | O=NN(CCCl)C(=O)NC1CCC(=O)NC1=O (stereo not given) | 0.37 | –
18 | O=c1[nH]cc(F)c(=O)[nH]1 [FLUOROURACIL] | -0.95 | –
19 | Cc1cc(N2C(N)=NC(N)=NC2(C)C)ccc1OCc1cccc(C(N)=O)c1 | -2.46 | –
20 | NC(N)=O [UREA] | – | -2.8

Reference: ChEMBL document CHEMBL1121459, “Relationship of octanol/water partition coefficient and molecular weight to rat brain capillary permeability” (J Med Chem, 1980)
